Key:
Format in all cases: in vivo
ducksalad [1] = experiment: Test Example 2: herbicidal effects during the vegetation period under submerged conditions; details: treatment during the vegetation period under submerged conditions; dose 2.52 g/a
Summary of the method: (§1)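 Barnyardgrass, bulrush and ducksalad were co-sown in alluvial soil flooded to 4 cm and grown in a greenhouse at 25 to 30° C. At the 1- or 2-leaf stage, water-diluted emulsifiable concentrates went onto the water surface at set doses (g/a). Herbicidal effect was scored three weeks later on a graded scale.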

bulrush [2] = experiment: as above; details: treatment during the vegetation period under submerged conditions; dose 2.52 g/a
Summary of the method: as §1

barnyardgrass [3] = experiment: as above; details: treatment during the vegetation period under submerged conditions; dose 2.52 g/a
Summary of the method: as §1

transplanted rice = experiment: Test Example 1: preemergence treatment under submerged conditions, effect on crop; details: dose 2.52 g/a
Summary of the method: (§2)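 Alluvial soil was flooded to 4 cm, sown with barnyardgrass, bulrush and ducksalad, and planted with 2.5-leaf rice seedlings. On the seeding day, water-diluted emulsifiable concentrates were applied to the water surface at set doses (g/a). After three weeks in a 25 to 30° C. greenhouse, mortality was scored 0–5.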

common chickweed [4] = experiment: Test Example 4: herbicidal effect in foliage treatment; details: dose 3.2 g/a, three weeks after application
Summary of the method: (§3)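 Weeds and crops sown in sterilized diluvial soil under ~1.5 cm cover and grown in greenhouse at 25 to 30° C. At 14 days, water-diluted emulsifiable concentrate sprayed onto foliage at set doses (g/a); herbicidal effect scored on a rating scale three weeks after application.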

water foxtail [5] = experiment: as above; details: dose 3.2 g/a, three weeks after application
Summary of the method: as §3

redroot pigweed [6] = experiment: as above; details: dose 3.2 g/a, three weeks after application
Summary of the method: as §3

Italian ryegrass [7] = experiment: as above; details: dose 3.2 g/a, three weeks after application
Summary of the method: as §3

common ragweed [8] = experiment: as above; details: dose 3.2 g/a, three weeks after application
Summary of the method: as §3

barnyardgrass [9] = experiment: as above; details: dose 3.2 g/a, three weeks after application
Summary of the method: as §3

posumbu knotweed [10] = experiment: as above; details: dose 3.2 g/a, three weeks after application
Summary of the method: as §3

large crabgrass [11] = experiment: as above; details: dose 3.2 g/a, three weeks after application
Summary of the method: as §3

velvetleaf [12] = experiment: as above; details: dose 3.2 g/a, three weeks after application
Summary of the method: as §3

common lambsquater [13] = experiment: as above; details: dose 3.2 g/a, three weeks after application
Summary of the method: as §3

beadstraw = experiment: as above; details: dose 3.2 g/a, three weeks after application
Summary of the method: as §3

wild oat [14] = experiment: as above; details: dose 3.2 g/a, three weeks after application
Summary of the method: as §3

giant foxtail [15] = experiment: as above; details: dose 3.2 g/a, three weeks after application
Summary of the method: as §3

common chickweed [16] = experiment: Test Example 3: herbicidal effects in soil treatment; details: dose 3.2 g/a
Summary of the method: (§4)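 Seeds were sown in sterilized diluvial soil and covered with about 1.5 cm of soil. Compounds, formulated as emulsifiable concentrates and diluted with water, were sprayed evenly over the soil surface at set doses in g/a. Herbicidal effect was scored on a rating scale three weeks later.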

water foxtail [17] = experiment: as above; details: dose 3.2 g/a
Summary of the method: as §4

redroot pigweed [18] = experiment: as above; details: dose 3.2 g/a
Summary of the method: as §4

Italian ryegrass [19] = experiment: as above; details: dose 3.2 g/a
Summary of the method: as §4

common ragweed [20] = experiment: as above; details: dose 3.2 g/a
Summary of the method: as §4

barnyardgrass [21] = experiment: as above; details: dose 3.2 g/a
Summary of the method: as §4

posumbu knotweed [22] = experiment: as above; details: dose 3.2 g/a
Summary of the method: as §4

large crabgrass [23] = experiment: as above; details: dose 3.2 g/a
Summary of the method: as §4

velvetleaf [24] = experiment: as above; details: dose 3.2 g/a
Summary of the method: as §4

common lambsquater [25] = experiment: as above; details: dose 3.2 g/a
Summary of the method: as §4

wild oat [26] = experiment: as above; details: dose 3.2 g/a
Summary of the method: as §4

giant foxtail [27] = experiment: as above; details: dose 3.2 g/a
Summary of the method: as §4

ducksalad [28] = experiment: Test Example 1: herbicidal effects in preemergence treatment under submerged conditions; details: dose 2.52 g/a
Summary of the method: as §2

bulrush [29] = experiment: as above; details: dose 2.52 g/a
Summary of the method: as §2

barnyardgrass [30] = experiment: as above; details: dose 2.52 g/a
Summary of the method: as §2

Structure (SMILES)	C: ducksalad, herbicidal effect (evaluation scale 0-5) (ducksalad [1])	B: bulrush, herbicidal effect (evaluation scale 0-5) (bulrush [2])	A: barnyardgrass, herbicidal effect (evaluation scale 0-5) (barnyardgrass [3])	a: transplanted rice, effect on crop (evaluation scale 0-5) (transplanted rice)	N: common chickweed, herbicidal effect (common chickweed [4])	G: water foxtail, herbicidal effect (water foxtail [5])	K: redroot pigweed, herbicidal effect (redroot pigweed [6])	H: Italian ryegrass, herbicidal effect (Italian ryegrass [7])	J: common ragweed, herbicidal effect (common ragweed [8])	A: barnyardgrass, herbicidal effect (barnyardgrass [9])	M: posumbu knotweed, herbicidal effect (posumbu knotweed [10])	D: large crabgrass, herbicidal effect (large crabgrass [11])	I: velvetleaf, herbicidal effect (velvetleaf [12])	L: common lambsquater, herbicidal effect (common lambsquater [13])	O: beadstraw, herbicidal effect (beadstraw)	F: wild oat, herbicidal effect (wild oat [14])	E: giant foxtail, herbicidal effect (giant foxtail [15])	N: common chickweed, herbicidal effect (evaluation scale 0-5) (common chickweed [16])	G: water foxtail, herbicidal effect (evaluation scale 0-5) (water foxtail [17])	K: redroot pigweed, herbicidal effect (evaluation scale 0-5) (redroot pigweed [18])	other results
O=C1CC(c2ccccc2)OCN1Cc1ccccc1NS(=O)(=O)C(F)(F)F (stereo not shown) [II-9]	5 (mortality of 90% or above (nearly complete death))	5 (mortality of 90% or above (nearly complete death))	5 (mortality of 90% or above (nearly complete death))	0 (mortality of less than 5% (almost ineffective))	3 (mortality of at least 40% and less than 70%)	4 (mortality of at least 70% and less than 90%)	0 (mortality of less than 5% (almost ineffective))	1 (mortality of at least 5% and less than 20%)	3 (mortality of at least 40% and less than 70%)	5 (mortality of 90% or above (nearly complete death))	5 (mortality of 90% or above (nearly complete death))	0 (mortality of less than 5% (almost ineffective))	1 (mortality of at least 5% and less than 20%)	0 (mortality of less than 5% (almost ineffective))	4 (mortality of at least 70% and less than 90%)	0 (mortality of less than 5% (almost ineffective))	4 (mortality of at least 70% and less than 90%)	3 (mortality of at least 40% and less than 70%)	5 (mortality of 90% or above (nearly complete death))	0 (mortality of less than 5% (almost ineffective))	H: Italian ryegrass, herbicidal effect (evaluation scale 0-5) (Italian ryegrass [19]): 4 (mortality of at least 70% and less than 90%); J: common ragweed, herbicidal effect (evaluation scale 0-5) (common ragweed [20]): 0 (mortality of less than 5% (almost ineffective)); A: barnyardgrass, herbicidal effect (evaluation scale 0-5) (barnyardgrass [21]): 5 (mortality of 90% or above (nearly complete death)); M: posumbu knotweed, herbicidal effect (evaluation scale 0-5) (posumbu knotweed [22]): 5 (mortality of 90% or above (nearly complete death)); D: large crabgrass, herbicidal effect (evaluation scale 0-5) (large crabgrass [23]): 5 (mortality of 90% or above (nearly complete death)); I: velvetleaf, herbicidal effect (evaluation scale 0-5) (velvetleaf [24]): 5 (mortality of 90% or above (nearly complete death)); L: common lambsquater, herbicidal effect (evaluation scale 0-5) (common lambsquater [25]): 0 (mortality of less than 5% (almost ineffective)); F: wild oat, herbicidal effect (evaluation scale 0-5) (wild oat [26]): 3 (mortality of at least 40% and less than 70%); E: giant foxtail, herbicidal effect (evaluation scale 0-5) (giant foxtail [27]): 4 (mortality of at least 70% and less than 90%); C: ducksalad, herbicidal effect (evaluation scale 0-5) (ducksalad [28]): 5 (mortality of 90% or above (nearly complete death)); B: bulrush, herbicidal effect (evaluation scale 0-5) (bulrush [29]): 5 (mortality of 90% or above (nearly complete death)); A: barnyardgrass, herbicidal effect (evaluation scale 0-5) (barnyardgrass [30]): 5 (mortality of 90% or above (nearly complete death))
CCCOC(=O)N(c1ccccc1CN1COC(c2ccccc2)CC1=O)S(=O)(=O)C(F)(F)F (stereo not shown) [II-11]	5 (mortality of 90% or above (nearly complete death))	5 (mortality of 90% or above (nearly complete death))	5 (mortality of 90% or above (nearly complete death))	0 (mortality of less than 5% (almost ineffective))	4 (mortality of at least 70% and less than 90%)	3 (mortality of at least 40% and less than 70%)	0 (mortality of less than 5% (almost ineffective))	1 (mortality of at least 5% and less than 20%)	4 (mortality of at least 70% and less than 90%)	4 (mortality of at least 70% and less than 90%)	3 (mortality of at least 40% and less than 70%)	2 (mortality of at least 20% and less than 40%)	4 (mortality of at least 70% and less than 90%)	2 (mortality of at least 20% and less than 40%)	4 (mortality of at least 70% and less than 90%)	0 (mortality of less than 5% (almost ineffective))	2 (mortality of at least 20% and less than 40%)	3 (mortality of at least 40% and less than 70%)	4 (mortality of at least 70% and less than 90%)	0 (mortality of less than 5% (almost ineffective))	H: Italian ryegrass, herbicidal effect (evaluation scale 0-5) (Italian ryegrass [19]): 3 (mortality of at least 40% and less than 70%); J: common ragweed, herbicidal effect (evaluation scale 0-5) (common ragweed [20]): 2 (mortality of at least 20% and less than 40%); A: barnyardgrass, herbicidal effect (evaluation scale 0-5) (barnyardgrass [21]): 3 (mortality of at least 40% and less than 70%); M: posumbu knotweed, herbicidal effect (evaluation scale 0-5) (posumbu knotweed [22]): 0 (mortality of less than 5% (almost ineffective)); D: large crabgrass, herbicidal effect (evaluation scale 0-5) (large crabgrass [23]): 3 (mortality of at least 40% and less than 70%); I: velvetleaf, herbicidal effect (evaluation scale 0-5) (velvetleaf [24]): 5 (mortality of 90% or above (nearly complete death)); L: common lambsquater, herbicidal effect (evaluation scale 0-5) (common lambsquater [25]): 0 (mortality of less than 5% (almost ineffective)); F: wild oat, herbicidal effect (evaluation scale 0-5) (wild oat [26]): 0 (mortality of less than 5% (almost ineffective)); E: giant foxtail, herbicidal effect (evaluation scale 0-5) (giant foxtail [27]): 4 (mortality of at least 70% and less than 90%); C: ducksalad, herbicidal effect (evaluation scale 0-5) (ducksalad [28]): 5 (mortality of 90% or above (nearly complete death)); B: bulrush, herbicidal effect (evaluation scale 0-5) (bulrush [29]): 5 (mortality of 90% or above (nearly complete death)); A: barnyardgrass, herbicidal effect (evaluation scale 0-5) (barnyardgrass [30]): 5 (mortality of 90% or above (nearly complete death))

From patent publication US20120029187A1, “HALOALKYLSULFONANILIDE DERIVATIVE” (Nissan Chemical Industries, Ltd., priority 2009, published 2012)
